Reference: publication PMC2962730 (Journal of neurochemistry, 2010)
Residue numbers refer to the chain shown, from its start.

Key:
hVAChT Y60H [1] = biological target: T1, hVAChT Y60H (Homo sapiens, UniProt Q16572, Y60H); assay: [3H]vesamicol saturation binding; conditions: pH 7.4
T1 sequence (Q16572 1-532 Y60H): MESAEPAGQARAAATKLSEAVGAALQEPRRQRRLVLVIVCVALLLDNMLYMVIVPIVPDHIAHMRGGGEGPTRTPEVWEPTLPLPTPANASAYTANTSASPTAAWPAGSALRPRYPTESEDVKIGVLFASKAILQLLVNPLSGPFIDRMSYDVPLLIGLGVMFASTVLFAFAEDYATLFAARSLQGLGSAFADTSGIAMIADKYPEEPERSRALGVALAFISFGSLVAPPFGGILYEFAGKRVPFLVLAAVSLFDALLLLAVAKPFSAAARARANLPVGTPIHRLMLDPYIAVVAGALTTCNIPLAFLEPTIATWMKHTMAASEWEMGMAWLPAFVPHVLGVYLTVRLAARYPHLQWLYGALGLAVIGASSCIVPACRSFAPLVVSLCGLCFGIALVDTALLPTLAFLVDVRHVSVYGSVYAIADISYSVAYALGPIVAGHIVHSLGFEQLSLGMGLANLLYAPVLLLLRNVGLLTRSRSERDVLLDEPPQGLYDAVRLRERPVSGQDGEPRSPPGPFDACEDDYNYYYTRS

hVAChT A330V = biological target: T2, hVAChT A330V (Homo sapiens, UniProt Q16572, A330V); assay: [3H]vesamicol saturation binding; conditions: pH 7.4
T2 sequence (Q16572 1-532 A330V): T1 sequence (Q16572 1-532 Y60H) with H60Y, A330V

hVAChT K317A [2] = biological target: T3, hVAChT K317A (Homo sapiens, UniProt Q16572, K317A); assay: [3H]vesamicol saturation binding; conditions: pH 7.4
T3 sequence (Q16572 1-532 K317A): T1 sequence (Q16572 1-532 Y60H) with H60Y, K317A

hVAChT Y60W = biological target: T4, hVAChT Y60W (Homo sapiens, UniProt Q16572, Y60W); assay: [3H]vesamicol saturation binding; conditions: pH 7.4
T4 sequence (Q16572 1-532 Y60W): T1 sequence (Q16572 1-532 Y60H) with H60W

hVAChT K317A [3] = biological target: T3, hVAChT K317A; assay: [3H]ACh transport; format: biochemical
hVAChT F392A = biological target: T5, hVAChT F392A (Homo sapiens, UniProt Q16572, F392A); assay: [3H]ACh transport; format: biochemical
T5 sequence (Q16572 1-532 F392A): T1 sequence (Q16572 1-532 Y60H) with H60Y, F392A

hVAChT Y60H [4] = biological target: T1, hVAChT Y60H; assay: [3H]ACh transport; format: biochemical
[5] = read-out: KM, Michaelis-Menten constant for ACh transport, pH 7.4

Vmax/Bmax, ACh transport normalized to Bmax (hVAChT K317A [3]; pH 7.4) | Km (hVAChT K317A [3]; [5]) | Vmax/Bmax, ACh transport normalized to Bmax (hVAChT F392A; pH 7.4) | Km (hVAChT F392A; [5]) | Vmax/Bmax, ACh transport normalized to Bmax (hVAChT Y60H [4]; pH 7.4) | Km (hVAChT Y60H [4]; [5]) | SMILES | Bmax, maximal specific [3H]vesamicol binding (VAChT expression level) (hVAChT Y60H [1]) | Bmax, maximal specific [3H]vesamicol binding (VAChT expression level) (hVAChT A330V) | Bmax, maximal specific [3H]vesamicol binding (VAChT expression level) (hVAChT K317A [2]) | Bmax, maximal specific [3H]vesamicol binding (VAChT expression level) (hVAChT Y60W)
– | – | – | – | – | – | O[C@@H]1CCCC[C@H]1N1CCC(c2ccccc2)CC1 (racemic) [vesamicol, ( )-trans-2-(4-phenylpiperidino)cyclohexanol] | 15 ± 1 pmol/mg | 21 ± 0 pmol/mg | 21 ± 1 pmol/mg | 34 ± 3 pmol/mg
17.8 ± 3.9 min⁻¹ | 3200 ± 1200 µM | 11 ± 1 min⁻¹ | 520 ± 110 µM | 3.1 ± 0.6 min⁻¹ | 720 ± 530 µM | CC(=O)OCC[N+](C)(C)C [ACh, acetylcholine] | – | – | – | –
